From patent US8906904B2, “Alkoxy pyrazoles as soluble guanylate cyclase activators” (Boehringer Ingelheim International GmbH, priority 2012, dated 2014)
Converted amounts (≈) assume the structure as drawn.

Key:
[1] = Assessment of solubility (McIlvaine buffers, 24 h shake, UPLC-UV); format: physicochemical; conditions: kinetic from dmso stock
Procedure, shortened: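 Compounds from 10 mM DMSO stocks were shaken for 24 h at room temperature in McIlvaine buffers at pH 2.2, 4.5 and 6.8 (2.5% v/v DMSO final), then filtered. Filtrates were quantified by UPLC-UV at 254 nm against a 50:50 acetonitrile/water reference assumed fully dissolved, as a single determination.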

[2] = human liver microsome (HLM) metabolic stability assay; format: in vitro ADME; conditions: human liver microsomes; % hepatic blood flow calculated from t1/2
Procedure, shortened: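 Compounds at 1 uM incubated with human liver microsomes plus NADPH at 37° C., sampled at 0, 5, 15, 30 and 60 min into cold acetonitrile and quantified by LC/MS/MS. t½ from the slope of ln % remaining vs time; CLint, CLh and % Qh derived from it (n=1).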

SMILES | solubility at 24 h ([1]; pH 2.2, aqueous buffer) [µg/mL] | solubility at 24 h ([1]; pH 4.5, aqueous buffer) [µg/mL] | solubility at 24 h ([1]; pH 6.8, aqueous buffer) [µg/mL] | HLM (% Qh) [2] [% Qh]
COc1c(C(=O)O)cnn1-c1cccc(-c2cccc(C)c2OCc2ccc3c(c2C)CCN(C[C@@H]2CCCCO2)C3)n1 [Compound 198] | 120 (≈ 206 µM) | 100 (≈ 172 µM) | 93 (≈ 160 µM) | <24
COc1c(C(=O)O)cnn1-c1cccc(-c2cccc(C)c2OCc2ccc3c(c2C)CCN(C[C@@H]2CCCO2)CC3)n1 [Compound 223] | 81 (≈ 139 µM) | 68 (≈ 117 µM) | 69 (≈ 118 µM) | <24
COc1c(C(=O)O)cnn1-c1cccc(-c2cccc(C)c2OCc2ccc3c(c2C)CCN(C[C@@H]2CCOC2)C3)n1 [Compound 191] | 100 (≈ 176 µM) | 85 (≈ 149 µM) | 80 (≈ 141 µM) | <24
CCOc1c(C(=O)O)cnn1-c1cccc(-c2cccc(C)c2OCc2ccc3c(c2C)CCN(C[C@H]2COCCO2)CC3)n1 [Compound 212] | 92 (≈ 150 µM) | 79 (≈ 129 µM) | 75 (≈ 122 µM) | <24
COc1c(C(=O)O)cnn1-c1cccc(-c2cccc(C)c2OCc2cc(C)c3c(c2)CCN(CC2COCCO2)C3)n1 (stereo not shown) [Compound 240] | 92 (≈ 157 µM) | 69 (≈ 118 µM) | 67 (≈ 115 µM) | <24
COc1c(C(=O)O)cnn1-c1cccc(-c2cccc(C)c2OCc2cc(C)c3c(c2)CCN(C2CCCOC2)C3)n1 (stereo not shown) [Compound 237] | 94 (≈ 165 µM) | 55 (≈ 96.7 µM) | 52 (≈ 91.4 µM) | <24
COc1c(C(=O)O)cnn1-c1cccc(-c2cccc(C)c2OCc2ccc3c(c2F)CCN([C@@H]2CCOC2)C3)n1 [Compound 252] | 94 (≈ 168 µM) | 73 (≈ 131 µM) | 62 (≈ 111 µM) | <24
COc1c(C(=O)O)cnn1-c1cccc(-c2cccc(C)c2OCc2ccc3c(c2Cl)CCN(C2CCOCC2)C3)n1 [Compound 18] | 110 (≈ 187 µM) | 86 (≈ 146 µM) | 90 (≈ 153 µM) | <24
CCOc1c(C(=O)O)cnn1-c1cccc(-c2cccc(C)c2OCc2ccc3c(c2)CCCN(C2CCCOC2)C3)n1 (stereo not shown) [Compound 245] | 100 (≈ 172 µM) | 79 (≈ 136 µM) | 92 (≈ 158 µM) | <24
CCOc1c(C(=O)O)cnn1-c1cccc(-c2cccc(C)c2OCc2ccc3c(c2C)CCN(C(C)COC)CC3)n1 (stereo not shown) [Compound 196] | 89 (≈ 152 µM) | 77 (≈ 132 µM) | 85 (≈ 145 µM) | <24
CCOc1c(C(=O)O)cnn1-c1cccc(-c2cccc(C)c2OCc2cc(C)c3c(c2)CCN(C2CCOC2)C3)n1 (stereo not shown) [Compound 241] | 100 (≈ 176 µM) | 81 (≈ 142 µM) | 84 (≈ 148 µM) | <24
CCOc1c(C(=O)O)cnn1-c1cccc(-c2cccc(C)c2OCc2ccc3c(c2C)CCN(C[C@@H]2CCCCO2)CC3)n1 [Compound 215] | 86 (≈ 141 µM) | 70 (≈ 115 µM) | 76 (≈ 124 µM) | <24
CCOc1c(C(=O)O)cnn1-c1cccc(-c2cccc(C)c2OCc2ccc3c(c2C)CCN(C[C@@H]2CCCO2)CC3)n1 [Compound 235] | 100 (≈ 168 µM) | 83 (≈ 139 µM) | 88 (≈ 147 µM) | 29
CCOc1c(C(=O)O)cnn1-c1cccc(-c2cccc(C)c2OCc2ccc3c(c2C)CCN(CC2(C)COC2)CC3)n1 [Compound 190] | 100 (≈ 168 µM) | 83 (≈ 139 µM) | 87 (≈ 146 µM) | 43
COc1c(C(=O)O)cnn1-c1cccc(-c2cccc(C)c2OCc2ccc3c(c2Cl)CCN(C2CCC2)C3)n1 [Compound 20] | 95 (≈ 170 µM) | 72 (≈ 129 µM) | 68 (≈ 122 µM) | 38
CCOc1c(C(=O)O)cnn1-c1cccc(-c2cccc(C)c2OCc2ccc3c(c2C)CCN([C@H]2CCOC2)CC3)n1 [Compound 225] | 95 (≈ 163 µM) | 78 (≈ 134 µM) | 81 (≈ 139 µM) | <24
CCOc1c(C(=O)O)cnn1-c1cccc(-c2cccc(C)c2OCc2ccc3c(c2C)CCN(C[C@H]2CCCO2)CC3)n1 [Compound 233] | 98 (≈ 164 µM) | 73 (≈ 122 µM) | 86 (≈ 144 µM) | 26
COc1c(C(=O)O)cnn1-c1cccc(-c2cc(C)cc(C)c2OCc2ccc3c(c2C)CCN(C2CCOCC2)C3)n1 [Compound 180] | 100 (≈ 172 µM) | 79 (≈ 136 µM) | 76 (≈ 130 µM) | <24
CCOc1c(C(=O)O)cnn1-c1cccc(-c2cccc(C)c2OCc2cc(C)c3c(c2)CCN(CC2(C)COC2)C3)n1 [Compound 200] | 100 (≈ 172 µM) | 73 (≈ 125 µM) | 73 (≈ 125 µM) | 40
